The test system of series [1] is Glomerella lagenarium (Colletotrichum lagenarium). Put plainly: Glomerella lagenarium (Colletotrichum lagenarium) / liquid culture (anthracnose). The format is cell-based. The settings on record: Colletotrichum orbiculare; 200 ppm, liquid culture, PDB, 24° C., 3-4 days after application; read-out: control of Glomerella lagenarium (inhibition of growth, photometric).

Series [2] deals with Mycosphaerella arachidis (Cercospora arachidicola). Put plainly: Mycosphaerella arachidis (Cercospora arachidicola) / liquid culture (early leaf spot). The format is cell-based. The note with it: 200 ppm, liquid culture, PDB, 24° C., 4-5 days after application, read-out: control of Mycosphaerella arachidis (inhibition of growth, photometric).
The subject of series [3] is Mycosphaerella graminicola (Septoria tritici). Put plainly: Mycosphaerella graminicola (Septoria tritici) / liquid culture (Septoria blotch). It counts as cell-based. The note with it: Zymoseptoria tritici; 200 ppm, liquid culture, PDB, 24° C., 4-5 days after application; read-out: control of Mycosphaerella graminicola (inhibition of growth, photometric).
Another series deals with Gaeumannomyces graminis. Put plainly: Gaeumannomyces graminis / liquid culture (take-all of cereals). It counts as cell-based. The settings on record: 200 ppm, liquid culture, PDB, 24° C., 4-5 days after application, read-out: control of Gaeumannomyces graminis (inhibition of growth, photometric).
The test system of series [4] is Monographella nivalis (Microdochium nivale). The series can be described thus: Monographella nivalis (Microdochium nivale) / liquid culture (foot rot cereals). It counts as cell-based. The settings on record: PDB, 24° C., 4-5 days after application, read-out: control of Monographella nivalis (inhibition of growth, photometric).
The subject of the next series is Pythium ultimum. The series can be described thus: Pythium ultimum / liquid culture (seedling damping off). It counts as cell-based. The note with it: Globisporangium ultimum, potato dextrose broth, 24° C., 2-3 days after application, read-out: control of Pythium ultimum (inhibition of growth, photometric).
The next series relates to Pyrenophora teres. The settings on record: in Hordeum vulgare, foliar, read-out: control of Pyrenophora teres (disease control compared to untreated).
In series [5] the test system is Puccinia recondita f. sp. tritici. The note with it: in Triticum aestivum, foliar, read-out: control of Puccinia recondita f. sp. tritici (percent disease control compared to untreated).
For series [6] the test system is unchanged. The settings on record: in Triticum aestivum, foliar, read-out: control of Puccinia recondita f. sp. tritici (percent disease control compared to untreated). The source holds these as a separate data set.
In series [7] the test system is Thanatephorus cucumeris (Rhizoctonia solani). The note with it: read-out: control of Thanatephorus cucumeris (inhibition of growth, photometric).
Series [8] has as its system Phaeosphaeria nodorum (Septoria nodorum). The settings on record: Parastagonospora nodorum, in Triticum aestivum, foliar, read-out: control of Phaeosphaeria nodorum (percent disease control compared to untreated).

Read-outs that look alike come from different tables or passages of the source.

`CSc1cc(C)nc(-c2cccc(CCCO/N=C(\C)c3cccc(C)n3)n2)c1` [P.17] returned a melting point of 76 to 77 °C. Also, the inhibition at 200 ppm in series [1] was not below 80%. In addition, the inhibition at 200 ppm in series [2] is not below 80%. Further, the inhibition at 200 ppm in [3] was not below 80%. Further, the inhibition at 200 ppm in the series with Gaeumannomyces graminis was not below 80%. The inhibition at 200 ppm in [4] is not below 80%. For the same molecule, the inhibition at 200 ppm in the series on Pythium ultimum is not below 80%. In addition, the pest or weed control at 200 ppm in the series with Pyrenophora teres was not below 80%. The pest or weed control at 200 ppm in series [5] is not below 80%. Also, in [6], the pest or weed control at 200 ppm is not below 80%. Also, the inhibition at 200 ppm in series [7] is not below 80%. Also, in [8], the pest or weed control at 200 ppm was not below 80%.

Source of the values: patent US20140045873A1, “NOVEL MICROBIOCIDES” (SYNGENTA PARTICIPATIONS AG, priority 2010, published 2014).
